The experiment concerns the target T1, Dopamine beta hydroxylase (Homo sapiens, UniProt P09172).
T1 construct: 125 μl of plasma; tissue Instituto Português do Sangue Transplantação; host or cells: human plasma from healthy donors
T1 sequence (P09172 40-617 limits assumed): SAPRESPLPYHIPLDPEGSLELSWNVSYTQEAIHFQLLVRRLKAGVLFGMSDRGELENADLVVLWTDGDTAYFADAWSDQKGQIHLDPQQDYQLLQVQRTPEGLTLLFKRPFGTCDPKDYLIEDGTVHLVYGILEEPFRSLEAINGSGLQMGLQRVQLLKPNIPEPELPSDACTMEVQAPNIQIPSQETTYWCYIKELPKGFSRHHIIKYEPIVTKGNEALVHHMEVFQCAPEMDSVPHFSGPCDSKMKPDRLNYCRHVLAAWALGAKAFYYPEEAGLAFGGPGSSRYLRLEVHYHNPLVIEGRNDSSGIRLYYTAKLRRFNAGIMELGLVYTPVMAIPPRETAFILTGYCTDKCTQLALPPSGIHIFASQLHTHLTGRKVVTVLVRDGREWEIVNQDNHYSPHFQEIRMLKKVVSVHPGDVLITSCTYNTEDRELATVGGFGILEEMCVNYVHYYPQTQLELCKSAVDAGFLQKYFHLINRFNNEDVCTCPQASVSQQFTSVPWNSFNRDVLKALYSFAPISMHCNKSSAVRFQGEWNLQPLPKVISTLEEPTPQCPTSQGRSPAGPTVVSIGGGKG
Briefly: Dopamine beta hydroxylase activity in human plasma. The following applies: for Plasma (0.01 μM), activity in % of control: inhibitor 0.01 μM; for Plasma (0.1 μM), activity in % of control: inhibitor 0.1 μM; for Plasma (1 μM), activity in % of control: inhibitor 1 μM. The format is biochemical. The gist of the method:
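Octopamine production from tyramine over 45 min at 37° C, measured photometrically at 330 nm after SCX extraction and periodate oxidation against an octopamine standard curve, indicates plasma DβH activity. Compounds tested at final 10, 100 and 1000 nM in human plasma, pH 5.0 cofactor buffer, 10 min preincubation; results as % of control.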

On to `Cn1c(CC(=O)N[C@@H]2CCCOC2)c2n(c1=S)C[C@H](c1c(F)ccc(Br)c1F)C2` [Example 382, 2-((S)-6-(3-bromo-2,6-difluorophenyl)-2-methyl-3-thioxo-2,5,6,7-tetrahydro-3H-pyrrolo[1,2-c]imidazol-1-yl)-N—((R)-tetrahydro-2H-pyran-3-yl)acetamide], for which the “Plasma (0.01 μM), activity in % of control” value is on record as 37.6 % of control and the “Plasma (0.1 μM), activity in % of control” value is on record as 6.0 % of control.
Regarding `Fc1cc(F)c(F)c([C@H]2Cc3c(CCc4ccncc4)[nH]c(=S)n3C2)c1F` [Example 218, (R)-1-(2-(pyridin-4-yl)ethyl)-6-(2,3,5,6-tetrafluorophenyl)-2,5,6,7-tetrahydro-3H-pyrrolo[1,2-c]imidazole-3-thione], the “Plasma (0.01 μM), activity in % of control” value is reported as 89.2 % of control and the “Plasma (0.1 μM), activity in % of control” value is 69.1 % of control.
The matching figures for `Cl.Cn1c(CCNCC(F)(F)F)c2n(c1=S)C[C@@]1(c3cc(Br)ccc3F)C[C@@H]21` [Example 334, (5aS,6aR)-5a-(5-bromo-2-fluorophenyl)-2-methyl-1-(2-((2,2,2-trifluoroethyl)amino)ethyl)-5,5a,6,6a-tetrahydrocyclopropa[3,4]pyrrolo[1,2-c]imidazole-3(2H)-thione Hydrochloride]: 80.3 % of control and 41.9 % of control.
The matching figures for `Cn1c(CC(=O)N2CCCO2)c2n(c1=S)C[C@H](c1c(F)ccc(Cl)c1F)C2` [Example 444, (S)-2-(6-(3-chloro-2,6-difluorophenyl)-2-methyl-3-thioxo-2,5,6,7-tetrahydro-3H-pyrrolo[1,2-c]imidazol-1-yl)-1-(isoxazolidin-2-yl)ethan-1-one]: 73.5 % of control and 57.7 % of control.
For the compound `O=C(Cc1[nH]c(=S)n2c1C[C@@H](c1c(F)ccc(Br)c1F)C2)NCCO` [Example 93, (S)-2-(6-(3-bromo-2,6-difluorophenyl)-3-thioxo-2,5,6,7-tetrahydro-3H-pyrrolo[1,2-c]imidazol-1-yl)-N-(2-hydroxyethyl)acetamide], the “Plasma (0.1 μM), activity in % of control” value is 32.1 % of control and the “Plasma (1 μM), activity in % of control” value is recorded as 1.0 % of control.
Turning to `O=C(Cc1[nH]c(=S)n2c1[C@@H]1C[C@]1(c1cc(Br)ccc1F)C2)NC1CC1` [Example 154, 2-((5aS,6aR)-5a-(5-bromo-2-fluorophenyl)-3-thioxo-2,3,5,5a,6,6a-hexahydrocyclopropa[3,4]pyrrolo[1,2-c]imidazol-1-yl)-N-cyclopropylacetamide], the “Plasma (0.01 μM), activity in % of control” value was 89.5 % of control and the “Plasma (0.1 μM), activity in % of control” value is on record as 38.6 % of control.
Consider `O=C(Cc1[nH]c(=S)n2c1C[C@H](c1c(F)c(F)cc(F)c1F)C2)NC1CCCCC1O` (stereo partly drawn) [Example 29, N-(2-hydroxycyclohexyl)-2-((R)-6-(2,3,5,6-tetrafluorophenyl)-3-thioxo-2,5,6,7-tetrahydro-3H-pyrrolo[1,2-c]imidazol-1-yl)acetamide], for which the “Plasma (0.01 μM), activity in % of control” value is 72.5 % of control and the “Plasma (0.1 μM), activity in % of control” value was 29.1 % of control.
Take `O=C(Cc1[nH]c(=S)n2c1C[C@@H](c1c(F)ccc(Br)c1F)C2)NC1CC1` [Example 94, (S)-2-(6-(3-bromo-2,6-difluorophenyl)-3-thioxo-2,5,6,7-tetrahydro-3H-pyrrolo[1,2-c]imidazol-1-yl)-N-cyclopropylacetamide]: the “Plasma (0.1 μM), activity in % of control” value is listed as 47.5 % of control and the “Plasma (1 μM), activity in % of control” value is on record as 0.8 % of control.
With `O=C(Cc1[nH]c(=S)n2c1C[C@@H](c1c(F)c(F)cc(F)c1F)C2)NC1CCC1` [Example 99, (S)—N-cyclobutyl-2-(6-(2,3,5,6-tetrafluorophenyl)-3-thioxo-2,5,6,7-tetrahydro-3H-pyrrolo[1,2-c]imidazol-1-yl)acetamide], the “Plasma (0.1 μM), activity in % of control” value was 55.7 % of control and the “Plasma (1 μM), activity in % of control” value is 10.3 % of control.
For `O=C(Cc1[nH]c(=S)n2c1C[C@H](c1c(F)c(F)cc(F)c1F)C2)N[C@H]1CC[C@H](O)CC1` [Example 28, N-((1r,4R)-4-hydroxycyclohexyl)-2-((R)-6-(2,3,5,6-tetrafluorophenyl)-3-thioxo-2,5,6,7-tetrahydro-3H-pyrrolo[1,2-c]imidazol-1-yl)acetamide], the “Plasma (0.01 μM), activity in % of control” value is listed as 78.1 % of control and the “Plasma (0.1 μM), activity in % of control” value is 33.8 % of control.
The like results for `CN(C(=O)Cc1c2n(c(=S)n1C)C[C@@H](c1c(F)c(F)cc(F)c1F)C2)C1CCOC1` (stereo partly drawn) [Example 375, N-methyl-2-((R)-2-methyl-6-(2,3,5,6-tetrafluorophenyl)-3-thioxo-2,5,6,7-tetrahydro-3H-pyrrolo[1,2-c]imidazol-1-yl)-N-(tetrahydrofuran-3-yl)acetamide] were, in that order, 90.0 % of control and 40.7 % of control.
Regarding `O=C(O)C(Cc1[nH]c(=S)n2c1C[C@H](c1c(F)c(F)cc(F)c1F)C2)C(=O)O` [Example 201, (R)-2-((6-(2,3,5,6-tetrafluorophenyl)-3-thioxo-2,5,6,7-tetrahydro-3H-pyrrolo[1,2-c]imidazol-1-yl)methyl)malonic Acid], the “Plasma (0.01 μM), activity in % of control” value was 62.4 % of control and the “Plasma (0.1 μM), activity in % of control” value is 13.3 % of control.
The matching figures for `Cn1c(CC(=O)NCC#N)c2n(c1=S)C[C@@]1(c3cc(Cl)ccc3F)C[C@@H]21` [Example 304, 2-((5aS,6aR)-5a-(5-chloro-2-fluorophenyl)-2-methyl-3-thioxo-2,3,5,5a,6,6a-hexahydrocyclopropa[3,4]pyrrolo[1,2-c]imidazol-1-yl)-N-(cyanomethyl)acetamide]: 51.9 % of control and 21.1 % of control.
The matching figures for `CN(C(=O)Cc1[nH]c(=S)n2c1C[C@@H](c1c(F)ccc(Br)c1F)C2)C1COC1` [Example 408, (S)-2-(6-(3-bromo-2,6-difluorophenyl)-3-thioxo-2,5,6,7-tetrahydro-3H-pyrrolo[1,2-c]imidazol-1-yl)-N-methyl-N-(oxetan-3-yl)acetamide]: 77.0 % of control and 14.7 % of control.
Take `Cn1c(CCC(=O)N2CC3C(C2)C3(C)C)c2n(c1=S)C[C@@H](c1c(F)c(F)cc(F)c1F)C2` (stereo partly drawn) [Example 319, 1-(6,6-dimethyl-3-azabicyclo[3.1.0]hexan-3-yl)-3-((R)-2-methyl-6-(2,3,5,6-tetrafluorophenyl)-3-thioxo-2,5,6,7-tetrahydro-3H-pyrrolo[1,2-c]imidazol-1-yl)propan-1-one]: the “Plasma (0.01 μM), activity in % of control” value is recorded as 67.9 % of control and the “Plasma (0.1 μM), activity in % of control” value was 16.5 % of control.
The matching figures for `Cn1c(CC(=O)N2CCC(CF)C2)c2n(c1=S)C[C@@H](c1c(F)ccc(F)c1F)C2` (stereo partly drawn) [Example 353, 1-(3-(fluoromethyl)pyrrolidin-1-yl)-2-((R)-2-methyl-3-thioxo-6-(2,3,6-trifluorophenyl)-2,5,6,7-tetrahydro-3H-pyrrolo[1,2-c]imidazol-1-yl)ethan-1-one]: 90.6 % of control and 38.4 % of control.

The values are drawn from patent US11434242B2, “Dopamine-b-hydroxylase inhibitors” (BIAL-PORTELA & Cª, S.A., priority 2017, dated 2022).
